Assay results as given in patent US6680070B1, “Particulate blends and compacted products formed therefrom, and the preparation thereof” (Albemarle Corporation, priority 2000, dated 2004).
Several values for one entry are separate records, joined by “and”; a condition that tells them apart may be missing. Identical values can stand only once. Blank lines part the entries; values can stand above or below the molecule they belong to.

Columns and labels:
[1] = Crush strength test (Sintech 1/S compression apparatus); assay type: physicochemical; conditions: Table 8, no binder; for Crush Strength (force at breaking point), single tablet / Crush Strength per inch thickness, single tablet: 5 g, 5000 psi, aged 6 days at room temperature
From the text: In each test, tablets made from 5 g of blended material were used. […] The apparatus includes a horizontal circular-shaped load cell interfaced with a computer, a digital micrometer also interfaced with the computer, and a vertical screw-driven piston that is disposed above the load cell and adapted to apply a downward force perpendicular to the load cell. The procedure for measuring crush strength involves measuring the thickness of the tablet with the micrometer to provide a digitized input to the computer. Next the tablet is placed on its edge on the load cell with the piston in contact with the upper edge of the tablet. Then the apparatus is activated whereby the piston commences applying a progressively increasing downward diametral force to the tablet. At the same time, the load cell continuously measures the downward force being applied to the tablet, and the input of such measurements is transmitted to the computer. When the force being applied reaches the point where the amount of force suddenly decreases to 10% of the immediately preceding force, the tablet has reached the breaking point, and the application of the force is immediately terminated by the software program. From the inputs to the computer, two values are provided, namely the pounds of force at the breaking point of the tablet, and the pounds of force per inch thickness of the tablet at the breaking point. Thus the greater the force applied, the greater the crush strength. […] When the compacted article is in a form other than a cylindrical tablet (e.g., a granule, caplet, briquette, or puck), the article being tested is to be positioned on the load cell and under the screw-driven piston with the longest axis of the article in the vertical position. In addition, the micrometer is used to measure the thickest portion of the article when the article is positioned on the load cell and under the screw-driven piston with the longest axis of the article in the vertical position.

[2] = Large tablet compaction, 2.5-inch punch and die, Carver Press; conditions: 63.8 g, 2.5-inch die, 5000 psi, no dwell time, silicone oil lubricant
[3] = Storage stability at 50° C., wt % active bromine by iodometric titration; assay type: physicochemical
From the text: Three more samples of the blend (5 g each) were compacted in the same manner, and each time a single tablet was extracted from the die after the pressure had been released. The tablets were manually broken into two equally-sized pieces. One half of each tablet was crushed into a powder with a mortar and pestle, and the powder was titrated using the standard, well-known, iodometric method with a starch indicator to determine the wt % of active bromine. The other half of each tablet was placed in a sealed glass vial and placed in an oven at 50° C. After 30 days, the samples were removed from the oven, ground up, and titrated to determine its wt % of active bromine using the same analytical method.

[4] = Granulation through Chilsonator breaker and screens; assay type: physicochemical; conditions: Chilsonator breaker, screens U.S. mesh 12 to 18
Procedure: The mixing time was 60 minutes in each case. […] The mixing time was 240 minutes. Each blend was passed through a Chilsonator® breaker (The Fitzpatrick Company, Elmhurst, Ill.) and a set of screens to produce compacted granules of U.S. mesh size 12 to 18. […] Instead, the unblended material exiting the Chilsonator® was mostly loose powder.

[5] = Compaction test: tablet pressed in die, visual observation on extraction; assay type: physicochemical; conditions: 0.71 inch die, 5000 psi, no dwell time, die dusted with MICROPRO 400; listed as control sample
[6] = Naproxen caplet compaction at 25,000 psi; assay type: physicochemical; conditions: imprinted stainless steel punch and die, 0.12-inch cross-sectional area
Procedure: A blend of commercially available virgin naproxen powder (Albemarle Corporation, Richmond, Va.) and micronized polyethylene wax (MPP-611; Micro Powders, Inc., Tarrytown, N.Y.) was formed. The blend contained 10 wt % of the micronized wax. Two 250 mg samples and three 318 mg samples of this blend were compacted in an imprinted stainless steel punch and die set of 0.12-inch cross-sectional area. Upon attaining a pressure of 25,000 psi, the pressure was released. […] The caplets were shiny and free of edge-burrs and surface defects. The imprinted lettering from the top punch was clearly impressed into the caplets.
Instead, as the punches were separated, approximately half of the naproxen had stuck to the top punch and the remainder had stuck to the bottom punch.

Compound: CC1(C)C(=O)N(Br)C(=O)N1Br
Observations (large tablet on extraction from die) [2]: Intact tablet exhibiting

Compound: CC1(C)C(=O)N(Br)C(=O)N1Br [DBDMH - without wax binder]
Wt % Active Bromine, Initial ([3]; half tablet crushed, iodometric titration): 55.3 Wt %
Wt % Active Bromine, After 30 days ([3]; half tablet in sealed glass vial, oven at 50° C., 30 days): 55.2 Wt %
Compaction into granules [4]: did not compact and form granules
Observations (large tablet on extraction from die) ([2]; listed as Commercial sample without binder): Tablet delaminates
Observations (tablet on extraction from die) [5]: not possible to extract a single tablet from the die

Compound: COc1ccc2cc([C@H](C)C(=O)O)ccc2c1 [naproxen]
Caplet formation [6]: No unbroken caplet of naproxen could be produced

More lines, main results first:

Crush Strength (force at breaking point), single tablet ([1]; listed as B): 10.7 lb. and 12.8 lb. and 9.8 lb.
Crush Strength (force at breaking point), average of set ([1]; listed as B): 11.1 lb.
Crush Strength per inch thickness, average of set ([1]; listed as B): 31.5 lb./in.
Compound: CC1(C)C(=O)N(Br)C(=O)N1Br [Set B]
Crush Strength per inch thickness, single tablet ([1]; listed as B): 30.4 lb./in. and 36.4 lb./in. and 27.8 lb./in.

Crush Strength (force at breaking point), average of set ([1]; listed as A): 22.4 lb.
Crush Strength per inch thickness, average of set ([1]; listed as A): 61.3 lb./in.
Compound: CC1(C)C(=O)N(Br)C(=O)N1Br [Set A]
Crush Strength (force at breaking point), single tablet ([1]; listed as A): 20.9 lb. and 25.5 lb. and 19.2 lb. and 22.8 lb. and 23.7 lb.
Crush Strength per inch thickness, single tablet ([1]; listed as A): 57.3 lb./in. and 69.5 lb./in. and 52.5 lb./in. and 62.1 lb./in. and 65.0 lb./in.
